system: HST in spinach chloroplast extract; assay: HST assay (TLC, MFBQ formed), spinach chloroplast extract; format: biochemical; settings: 25 ppm; TLC, estimated amount of MFBQ formed, relative to controls
Method: HST enzyme preparations for assay are also prepared directly from fresh plant material. For example HST enzyme preparations are from spinach. In the first step intact spinach chloroplasts are prepared from two lots of 500 g of fresh baby spinach leaves (e.g from the salad section of the local supermarket). Prepacked spinach is usually already washed, but if buying loose leaves these must be rinsed in water before proceeding. Stalks, large leaves and mid-ribs are removed. Each 500 g lot of leaves is added to 1.5 l of ‘Grinding medium’ in a 2 L plastic beaker. Grinding medium is cold (4° C.) 50 mM Tricine/NaOH buffer at pH 7.1 containing 330 mM glucose, 2 mM sodium isoascorbate, 5 mM MgCl2 and 0.1% bovine serum albumen The beaker, kept at 4° C., is placed under a Polytron 6000 blender, fitted with a 1.5″cutting probe and the mixture blended in short bursts of 5-8 sec up to 8-10K rpm until all the leaves are macerated. The homogenate is filtered into a 5 L beaker (embedded in an ice bucket) through four layers of muslin, and two layers of 50μ mesh nylon cloth. The filtrate is transferred to 250 ml buckets of a Beckman GS-6 centrifuge and spun at […] (3020 rpm) for 2 min at 4° C. The supernatant is drained away and discarded to leave a sediment of chloroplasts. Chloroplasts are resuspended in a few ml of cold resuspension medium by gentle swirling and gentle use of a quill brush soaked in resuspension medium. Resuspension medium is 50 mM Hepes/KOH pH 7.8 containing 330 mM sorbitol, 2 mM EDTA, 5 mM KH2PO4, 2 mM MgCl2 and 0.1% bovine serum albumen at 4° C. The chloroplasts are resuspended in 5-10 ml of resuspension buffer, recentrifuged down and resuspended again in order to wash them. The chloroplasts are then once again centrifuged down and then broken by resuspension in about 5 ml of 50 mM Tricine-NaOH pH 7.8 to a protein concentration of about 40 mg/ml. The solution is stored frozen at −80° C. in aliquots. This resuspension is defrosted and used directly in HST activity assays. Alternatively, chloroplasts are prepared resuspended in 50 mM Tris/HCl buffer at pH 7.8 containing 330 mM sorbitol (alternative resuspension buffer) and layered on top of a percol gradient (comprising the same buffer containing 45% percol), spun down, the intact chloroplast fraction taken and washed 2 or 3 times in the alternative resuspension buffer and then spun down again, resuspended in breaking buffer (without sorbitol), flash frozen and stored in aliquots at −80° C.
Prenyltransferase (HST) activities are measured by determining the prenylation rates of [U—^14C]homogentisate using farnesyl diphosphate (FDP) as prenyl donor. ^14C homogentisate is prepared from ^14C tyrosine using L amino acid oxidase and HPPD. For inhibitor testing, compounds are dissolved in dimethylsulfoxide (DMSO). DMSO added at up to 2% v/v has no effect on assays. Control assays contain DMSO at the same concentration as in inhibitor containing assays.
Assays using spinach chloroplast extracts (100 μl final volume) contain up to 2 mg of chloroplast protein, 50 mM Tricine-NaOH pH 8.5, 50 mM MgCl2, 200 μM farnesyl diphosphate (FDP) and 26 μM ^14C-homogentisate (167 dpm/pmol). Assays are run for about an hour at 28° C. […] Lipophilic reactions products are extracted and analyzed essentially as described in the literature.
Using the above assays percentage inhibition of the amount of MFBQ formed at a range of doses of inhibitors relative to the control amount obtained with no inhibitor present is reported (Table 1). The better inhibitors give greater percentage inhibition at lower doses.

Going from `O=c1c(-c2c(Cl)ccc(Cl)c2Cl)c(O)c2nccnc2n1CC(F)F` [Compound 2.14] to `O=c1c(-c2c(F)ccc(Br)c2Cl)c(O)c2nccnc2n1CC(F)F` [Compound 2.8], the “Spinach chloroplast extract % I at 25 ppm” value falls from 80% to 70%.

First: O=c1c(-c2cc(C(F)(F)F)ccc2Cl)c(O)c2nccnc2n1CC(F)F [Compound 2.9]
Second: O=c1c(-c2c(F)ccc(F)c2Cl)c(O)c2cccnc2n1CC(F)F [Compound 2.13]
The “Spinach chloroplast extract % I at 25 ppm” value of the first is higher: 90% for the first, 40% for the second.

For `Oc1c(Cl)c(F)nc(F)c1Cl` [Compound 1.1, haloxydine], the “Spinach chloroplast extract % I at 25 ppm” value was 70%.

same assay, conditions: final concentration 500 ppm

For `Oc1c(Cl)c(F)nc(F)c1Cl` [Compound 1.1, haloxydine], the “inhibition of the HST reaction” value was “completely inhibit”.
